Reference: PMC7161706 (Acta Pharmaceutica Sinica. B, 2019)

Assays:
GuPAL1 = GuPAL1 (Glycyrrhiza uralensis, UniProt A0A6B7HYR5); assay: product by HPLC-Q-TOF-MS; type: biochemical; settings: 1 mmol/L substrate, pH 8.0, 30 °C, 10 h
GuC4H1 = biological target: T1, GuC4H1 (Glycyrrhiza uralensis, UniProt A0A6B7HXZ5); assay: yeast feeding, product by HPLC-Q-TOF-MS; type: cell-based; settings: 20 μmol/L fed, 30 °C, 12 h; ATR1 reductase in WAT11
T1 sequence (A0A6B7HXZ5 1-505): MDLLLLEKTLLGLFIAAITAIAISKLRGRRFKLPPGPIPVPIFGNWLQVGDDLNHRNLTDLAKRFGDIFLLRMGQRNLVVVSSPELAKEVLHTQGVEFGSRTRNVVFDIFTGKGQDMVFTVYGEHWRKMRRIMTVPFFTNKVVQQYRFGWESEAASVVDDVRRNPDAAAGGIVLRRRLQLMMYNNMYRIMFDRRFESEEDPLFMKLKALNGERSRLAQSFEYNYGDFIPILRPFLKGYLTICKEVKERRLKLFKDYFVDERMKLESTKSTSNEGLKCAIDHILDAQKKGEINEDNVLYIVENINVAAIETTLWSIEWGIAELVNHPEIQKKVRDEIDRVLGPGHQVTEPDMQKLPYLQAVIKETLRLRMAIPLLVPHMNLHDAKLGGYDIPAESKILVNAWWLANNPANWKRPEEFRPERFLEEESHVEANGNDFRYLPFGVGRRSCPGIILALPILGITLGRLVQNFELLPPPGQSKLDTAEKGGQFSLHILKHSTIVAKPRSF

Chain of GuPAL1 (A0A6B7HYR5 1-783 limits assumed): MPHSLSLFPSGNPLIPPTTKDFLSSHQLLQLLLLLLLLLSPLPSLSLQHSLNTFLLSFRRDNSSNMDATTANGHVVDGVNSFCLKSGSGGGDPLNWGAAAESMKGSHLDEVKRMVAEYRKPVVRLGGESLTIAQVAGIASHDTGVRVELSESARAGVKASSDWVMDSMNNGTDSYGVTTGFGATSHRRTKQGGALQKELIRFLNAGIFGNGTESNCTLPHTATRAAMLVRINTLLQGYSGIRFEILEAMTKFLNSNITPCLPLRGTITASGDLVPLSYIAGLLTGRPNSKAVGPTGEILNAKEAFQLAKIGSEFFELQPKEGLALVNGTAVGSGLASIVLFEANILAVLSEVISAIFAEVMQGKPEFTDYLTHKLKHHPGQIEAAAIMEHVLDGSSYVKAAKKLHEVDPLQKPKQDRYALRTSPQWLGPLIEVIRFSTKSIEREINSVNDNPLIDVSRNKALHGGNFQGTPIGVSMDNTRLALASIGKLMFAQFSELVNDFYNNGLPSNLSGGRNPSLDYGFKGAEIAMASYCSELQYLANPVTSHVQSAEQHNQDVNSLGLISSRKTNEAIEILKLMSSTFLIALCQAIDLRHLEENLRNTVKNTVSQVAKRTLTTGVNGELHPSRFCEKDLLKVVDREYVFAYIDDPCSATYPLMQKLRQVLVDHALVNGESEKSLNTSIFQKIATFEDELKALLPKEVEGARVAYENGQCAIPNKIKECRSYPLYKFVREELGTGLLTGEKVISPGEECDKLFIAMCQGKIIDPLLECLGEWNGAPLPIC

| Structure (SMILES) | product by HPLC-Q-TOF-MS (cinnamic acid) (GuPAL1) | yeast feeding, product by HPLC-Q-TOF-MS (p-coumaric acid) (GuC4H1) |
| --- | --- | --- |
| N[C@@H](Cc1ccccc1)C(=O)O [Phe, phenylalanine] | incubation of the staring substrate phenylalanine with GuPAL1 yielded cinnamic acid |  |
| O=C(O)/C=C/c1ccccc1 [CiA, cinnamic acid] |  | GuC4H1 was able to produce p-coumaric acid upon feeding cinnamic acid and galactose |
